{"source": "PubChem BioAssay AID1919006", "about": "(Molecular Pharmacology Branch, DTP, NCI, 2023);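 also: spheroids exposed to compounds for seven days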", "tested_on": "885512-296-R-J2-PDC complex spheroid growth, % test/control", "assay": "Anticancer human tumor 885512-296-R-J2-PDC patient-derived breast carcinoma cell line growth inhibition [AhR]", "details": "for IC50: curve of first compound; for viability, T/C: stronger effect = lower value", "excerpt": "Multicellular complex tumor spheroid response to aryl hydrocarbon receptor antagonists in combination with a variety of drugs and investigational agents in selected tumor cell lines\nThe current study was undertaken to assess response to aryl hydrocarbon receptor antagonists in combination with standard-of-care drugs and investigational agents in solid tumor complex spheroid models. Complex spheroids include a stromal component modeled by human endothelial cells (HUVEC) and fibroblasts modeled by human mesenchymal stem cells (MSCs). The concentration ranges selected for each drug and investigational agent were based upon clinically achievable concentrations if the clinical Cmax of the agent was known.\nCompounds. The drugs and investigational agents: BAY 2416964 (NSC825713), GNF351 (NSC835774), CH-223191 (NSC835775), CPI-455 (NSC825282), aza-TdCyd (NSC777586), decitabine (NSC127716), belinostat (NSC758774), entinostat (NSC756642), pevonedistat (NSC761192), tazemetostat (NSC777109), talazoparib (NSC765396), olaparib (NSC753686), selinexor (NSC780203), nedisertib (M3814, NSC802822), bortezomib (NSC756655), venetoclax (NSC766270), doxorubicin (NSC123127), elimusertib (BAY189344, NSC800525), ceralasertib (AZD6738, NSC777638), TAK-243 (NSC785004), alisertib (NSC759677), etoposide (NSC141540), topotecan (NSC609699), eribulin (NSC707389), gemcitabine (NSC613327), carboplatin (NSC241240), cisplatin (NSC119875), and SN-38 (NSC673596) were obtained from the National Cancer Institute (NCI) Developmental Therapeutics Program Chemical Repository (32). The FDA-approved anticancer drug set is available from the Developmental Therapeutics Program at https://dtp.cancer.gov/organization/dscb/obtaining/available plates.htm. […] The stock solutions were prepared in dimethyl sulfoxide (DMSO, Sigma-Aldrich, St. Louis, MO, cat. D2650), except for the platinum compounds which were prepared in saline (Quality Biological, Gaithersburg, MD, cat. 114-055-101), at 800-fold the tested concentration and stored at -70 degrees C prior to their use. All drugs and investigational agents were tested over a range starting from a high concentration at or near the clinical Cmax and decreasing in half-log increments. If the clinical Cmax for an agent had not been determined, the highest concentration tested was 10 microM (Table 1).\nCell Culture. All cells were maintained in an incubator at 37 degrees C and 5% CO2 with 95% humidity. The PDC lines were cultured according to standard operating procedures established by the NCI PDMR (https://pdmr.cancer.gov). Briefly, all PDCs were thawed and cultured in Matrigel-coated flasks prepared with a working solution of 1X Ham's F-12 nutrient mix, without supplementation (Invitrogen, Waltham, MA, cat. 11765054), 100 U/mL penicillin-streptomycin (Invitrogen, cat. 15140122), and 2.5% Matrigel (Corning Inc., Corning, NY, cat. 354248) for the first three passages. All PDCs were cultured in complete DMEM/F-12 media containing advanced DMEM/F-12 (Invitrogen, cat. 12634028), 4.9% defined fetal bovine serum, heat inactivated (HyClone Laboratories Inc., Logan, UT, cat. SH30070.03HI), 389 ng/mL hydrocortisone (Sigma-Aldrich, cat. H4001), 9.7 ng/mL human EGF recombinant protein (Invitrogen, cat. PHG0313), 23.4 microg/mL adenine (Sigma-Aldrich, cat. A2786), 97.3 U/mL penicillin-streptomycin (Invitrogen, cat. 15140122), 1.9 mM L-glutamine (Invitrogen, cat. 25030081), and 9.7 microM Y-27632 dihydrochloride (Tocris Bioscience, Bristol, United Kingdom, cat. 1254). The PDCs were cultured in complete DMEM/F12 media without 10 microM Y-27632 dihydrochloride for at least two passages prior to the screen. The established cell lines NCI-H1341 and […] were cultured in DMEM/F-12, HEPES (Invitrogen, cat. 11330032), 5% defined fetal bovine serum (HyClone Laboratories Inc., cat. SH30070.03), ITS premix universal culture supplement [insulin (5 microg/mL), transferrin (5 microg/mL), and selenious acid (5 ng/mL)] […]"}
{"smiles": "CCc1c2c(nc3ccc(O)cc13)-c1cc3c(c(=O)n1C2)COC(=O)[C@]3(O)CC", "note": "+ CC(CO)NC(=O)c1cc(-c2ccc(Cl)cc2)nn(-c2cnn(C)c2)c1=O", "values": [{"measurement": "IC50", "setting": "second compound 0.1 µM", "result": "< 0.000949", "unit": "µM"}, {"measurement": "IC50", "setting": "second compound 0.316 µM", "result": "< 0.000949", "unit": "µM"}, {"measurement": "IC50", "setting": "second compound 1 µM", "result": "< 0.000949", "unit": "µM"}, {"measurement": "IC50", "setting": "second compound 3.16 µM", "result": "< 0.000949", "unit": "µM"}, {"measurement": "IC50", "setting": "second compound 10 µM", "result": "< 0.000949", "unit": "µM"}, {"measurement": "viability, T/C", "setting": "second compound 0.1 µM, first compound 0.000949 µM", "result": 9.08, "unit": "%"}, {"measurement": "viability, T/C", "setting": "second compound 0.1 µM, first compound 0.003 µM", "result": 7.28, "unit": "%"}, {"measurement": "viability, T/C", "setting": "second compound 0.1 µM, first compound 0.00949 µM", "result": 5.78, "unit": "%"}, {"measurement": "viability, T/C", "setting": "second compound 0.1 µM, first compound 0.03 µM", "result": 3.29, "unit": "%"}, {"measurement": "viability, T/C", "setting": "second compound 0.1 µM, first compound 0.0949 µM", "result": 2.16, "unit": "%"}, {"measurement": "viability, T/C", "setting": "second compound 0.1 µM, first compound 0.3 µM", "result": 1.46, "unit": "%"}, {"measurement": "viability, T/C", "setting": "second compound 0.316 µM, first compound 0.000949 µM", "result": 8.34, "unit": "%"}, {"measurement": "viability, T/C", "setting": "second compound 0.316 µM, first compound 0.003 µM", "result": 6.02, "unit": "%"}, {"measurement": "viability, T/C", "setting": "second compound 0.316 µM, first compound 0.00949 µM", "result": 3.71, "unit": "%"}, {"measurement": "viability, T/C", "setting": "second compound 0.316 µM, first compound 0.03 µM", "result": 3.2, "unit": "%"}, {"measurement": "viability, T/C", "setting": "second compound 0.316 µM, first compound 0.0949 µM", "result": 1.99, "unit": "%"}, {"measurement": "viability, T/C", "setting": "second compound 0.316 µM, first compound 0.3 µM", "result": 1.09, "unit": "%"}, {"measurement": "viability, T/C", "setting": "second compound 1 µM, first compound 0.000949 µM", "result": 10.7, "unit": "%"}, {"measurement": "viability, T/C", "setting": "second compound 1 µM, first compound 0.003 µM", "result": 7.68, "unit": "%"}, {"measurement": "viability, T/C", "setting": "second compound 1 µM, first compound 0.00949 µM", "result": 4.79, "unit": "%"}, {"measurement": "viability, T/C", "setting": "second compound 1 µM, first compound 0.03 µM", "result": 3.71, "unit": "%"}, {"measurement": "viability, T/C", "setting": "second compound 1 µM, first compound 0.0949 µM", "result": 2.42, "unit": "%"}, {"measurement": "viability, T/C", "setting": "second compound 1 µM, first compound 0.3 µM", "result": 1.92, "unit": "%"}, {"measurement": "viability, T/C", "setting": "second compound 3.16 µM, first compound 0.000949 µM", "result": 10.8, "unit": "%"}, {"measurement": "viability, T/C", "setting": "second compound 3.16 µM, first compound 0.003 µM", "result": 9.5, "unit": "%"}, {"measurement": "viability, T/C", "setting": "second compound 3.16 µM, first compound 0.00949 µM", "result": 4.77, "unit": "%"}, {"measurement": "viability, T/C", "setting": "second compound 3.16 µM, first compound 0.03 µM", "result": 4.01, "unit": "%"}, {"measurement": "viability, T/C", "setting": "second compound 3.16 µM, first compound 0.0949 µM", "result": 2.56, "unit": "%"}, {"measurement": "viability, T/C", "setting": "second compound 3.16 µM, first compound 0.3 µM", "result": 2.05, "unit": "%"}, {"measurement": "viability, T/C", "setting": "second compound 10 µM, first compound 0.000949 µM", "result": 13.8, "unit": "%"}, {"measurement": "viability, T/C", "setting": "second compound 10 µM, first compound 0.003 µM", "result": 12.5, "unit": "%"}, {"measurement": "viability, T/C", "setting": "second compound 10 µM, first compound 0.00949 µM", "result": 6.57, "unit": "%"}, {"measurement": "viability, T/C", "setting": "second compound 10 µM, first compound 0.03 µM", "result": 4.99, "unit": "%"}, {"measurement": "viability, T/C", "setting": "second compound 10 µM, first compound 0.0949 µM", "result": 2.67, "unit": "%"}, {"measurement": "viability, T/C", "setting": "second compound 10 µM, first compound 0.3 µM", "result": 2.21, "unit": "%"}]}
{"smiles": "O=C(c1cc(Cc2n[nH]c(=O)c3ccccc23)ccc1F)N1CCN(C(=O)C2CC2)CC1", "note": "+ CC(CO)NC(=O)c1cc(-c2ccc(Cl)cc2)nn(-c2cnn(C)c2)c1=O", "values": [{"measurement": "IC50", "setting": "second compound 0.1 µM", "result": 6.93, "unit": "µM"}, {"measurement": "IC50", "setting": "second compound 0.316 µM", "result": 6.97, "unit": "µM"}, {"measurement": "IC50", "setting": "second compound 1 µM", "result": 7.14, "unit": "µM"}, {"measurement": "IC50", "setting": "second compound 3.16 µM", "result": 7.14, "unit": "µM"}, {"measurement": "IC50", "setting": "second compound 10 µM", "result": 4.62, "unit": "µM"}, {"measurement": "viability, T/C", "setting": "second compound 0.1 µM, first compound 0.0316 µM", "result": 98.1, "unit": "%"}, {"measurement": "viability, T/C", "setting": "second compound 0.1 µM, first compound 0.1 µM", "result": 106, "unit": "%"}, {"measurement": "viability, T/C", "setting": "second compound 0.1 µM, first compound 0.316 µM", "result": 110, "unit": "%"}, {"measurement": "viability, T/C", "setting": "second compound 0.1 µM, first compound 1 µM", "result": 137, "unit": "%"}, {"measurement": "viability, T/C", "setting": "second compound 0.1 µM, first compound 3.16 µM", "result": 98.1, "unit": "%"}, {"measurement": "viability, T/C", "setting": "second compound 0.1 µM, first compound 10 µM", "result": 27.5, "unit": "%"}, {"measurement": "viability, T/C", "setting": "second compound 0.316 µM, first compound 0.0316 µM", "result": 102, "unit": "%"}, {"measurement": "viability, T/C", "setting": "second compound 0.316 µM, first compound 0.1 µM", "result": 89.7, "unit": "%"}, {"measurement": "viability, T/C", "setting": "second compound 0.316 µM, first compound 0.316 µM", "result": 112, "unit": "%"}, {"measurement": "viability, T/C", "setting": "second compound 0.316 µM, first compound 1 µM", "result": 121, "unit": "%"}, {"measurement": "viability, T/C", "setting": "second compound 0.316 µM, first compound 3.16 µM", "result": 95.5, "unit": "%"}, {"measurement": "viability, T/C", "setting": "second compound 0.316 µM, first compound 10 µM", "result": 29.2, "unit": "%"}, {"measurement": "viability, T/C", "setting": "second compound 1 µM, first compound 0.0316 µM", "result": 96.4, "unit": "%"}, {"measurement": "viability, T/C", "setting": "second compound 1 µM, first compound 0.1 µM", "result": 102, "unit": "%"}, {"measurement": "viability, T/C", "setting": "second compound 1 µM, first compound 0.316 µM", "result": 105, "unit": "%"}, {"measurement": "viability, T/C", "setting": "second compound 1 µM, first compound 1 µM", "result": 118, "unit": "%"}, {"measurement": "viability, T/C", "setting": "second compound 1 µM, first compound 3.16 µM", "result": 104, "unit": "%"}, {"measurement": "viability, T/C", "setting": "second compound 1 µM, first compound 10 µM", "result": 27.8, "unit": "%"}, {"measurement": "viability, T/C", "setting": "second compound 3.16 µM, first compound 0.0316 µM", "result": 94.7, "unit": "%"}, {"measurement": "viability, T/C", "setting": "second compound 3.16 µM, first compound 0.1 µM", "result": 98.4, "unit": "%"}, {"measurement": "viability, T/C", "setting": "second compound 3.16 µM, first compound 0.316 µM", "result": 111, "unit": "%"}, {"measurement": "viability, T/C", "setting": "second compound 3.16 µM, first compound 1 µM", "result": 113, "unit": "%"}, {"measurement": "viability, T/C", "setting": "second compound 3.16 µM, first compound 3.16 µM", "result": 91.9, "unit": "%"}, {"measurement": "viability, T/C", "setting": "second compound 3.16 µM, first compound 10 µM", "result": 32.5, "unit": "%"}, {"measurement": "viability, T/C", "setting": "second compound 10 µM, first compound 0.0316 µM", "result": 98.1, "unit": "%"}, {"measurement": "viability, T/C", "setting": "second compound 10 µM, first compound 0.1 µM", "result": 96, "unit": "%"}, {"measurement": "viability, T/C", "setting": "second compound 10 µM, first compound 0.316 µM", "result": 109, "unit": "%"}, {"measurement": "viability, T/C", "setting": "second compound 10 µM, first compound 1 µM", "result": 93.6, "unit": "%"}, {"measurement": "viability, T/C", "setting": "second compound 10 µM, first compound 3.16 µM", "result": 62.1, "unit": "%"}, {"measurement": "viability, T/C", "setting": "second compound 10 µM, first compound 10 µM", "result": 25.8, "unit": "%"}]}
